According to US6919375B1, “Sulfonated amino acid derivatives and metalloproteinase inhibitors containing the same” (Shionogi & Co., Ltd., priority 1996, dated 2005):

These compounds were tested against T1, Type IV collagenase (MMP-9) (Homo sapiens, UniProt P14780) (assay: Type IV collagenase (MMP-9) inhibition assay, fluorescent substrate kit). Conditions: activated MMP-9 from HT 1080 cells; type IV collagenase activity kit, fluorescent intensity.
T1 construct: made in house; host or cells: endogenous secretion by TPA-stimulated human fibrosarcoma HT 1080 cells; purified from conditioned medium
T1 sequence (P14780 107-707 limits assumed): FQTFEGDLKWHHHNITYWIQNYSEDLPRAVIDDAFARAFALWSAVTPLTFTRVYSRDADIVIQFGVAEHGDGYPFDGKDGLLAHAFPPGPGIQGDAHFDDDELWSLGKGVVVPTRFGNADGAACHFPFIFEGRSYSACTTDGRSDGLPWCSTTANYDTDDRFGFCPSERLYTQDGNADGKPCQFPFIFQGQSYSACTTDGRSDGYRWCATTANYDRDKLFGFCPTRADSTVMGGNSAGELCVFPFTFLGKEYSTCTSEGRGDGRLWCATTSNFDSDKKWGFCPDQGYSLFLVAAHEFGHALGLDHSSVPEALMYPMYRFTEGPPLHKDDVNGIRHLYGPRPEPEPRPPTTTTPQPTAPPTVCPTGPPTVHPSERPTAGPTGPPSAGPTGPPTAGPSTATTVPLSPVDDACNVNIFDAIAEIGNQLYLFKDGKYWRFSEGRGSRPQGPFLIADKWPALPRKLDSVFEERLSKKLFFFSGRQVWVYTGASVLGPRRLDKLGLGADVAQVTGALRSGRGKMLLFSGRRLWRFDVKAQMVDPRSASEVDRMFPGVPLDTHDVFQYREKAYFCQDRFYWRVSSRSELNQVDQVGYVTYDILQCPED
Format: biochemical
Procedure: (1) Isolation and Purification of MMP-9 (92 kDa, Gelatinase B)
Type IV collagenase (MMP-9) was purified according to the methods descrived in the following literature.
Subsequently, activated MMP-9 was obtained by treating the pro-MMP-9 with trypsin.
(2) Assay Methods of Type IV Collagenase Inhibitors
Collagenase assay was performed using the activated MMP-9 described above and the substrate supplied in the type IV collagenase activity kit (YAGAI, inc.), according to the manufacturer's protocol. The following 4 assays are performed per compound (inhibitor). • (A) substrate ([…]), enzyme (MMP-9), inhibitor • (B) substrate ([…]), inhibitor • (C) substrate ([…]), enzyme (MMP-9) • (D) substrate ([…])
According to the manufacturer's protocol, fluorescent intensity was measured and percent inhibition was determined by the following equation. Inhibition (%)={1−(A−B)/(C−D;)}×100

| IC50 | SMILES |
| --- | --- |
| 5.65 nM | O=C(NO)[C@@H](Cc1ccccc1)NS(=O)(=O)c1ccc(-c2nnn(-c3ccccc3)n2)cc1 [Example 1b-211] |
| 210 nM | O=C(O)[C@@H](Cc1ccccc1)NS(=O)(=O)c1ccc(-c2nnn(-c3ccccc3)n2)cc1 [Example 1a-5-3] |
| 21.6 nM | O=C(NO)C(Cc1nc2ccccc2[nH]1)NS(=O)(=O)c1ccc(-c2ccccc2)cc1 (racemic) [Example 1b.1-35] |
